Source: patent publication US11040028B2, “Penicinotam derivative, preparation method and use thereof” (OCEAN UNIVERSITY OF CHINA, priority 2017, dated 2021)

Key:
Type in all cases: cell-based
[1] = tested on: cardiac fibroblast RAT-iCell-C002; assay: Anti-fibrosis activity test: inhibition of proliferation of cardiac fibroblast RAT-iCell-C002 (CCK-8); settings: Cardiac fibroblast, 48 h, cardiac fibroblast RAT-iCell-C002, CCK-8, 48 hours
Method in brief: (§1)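 Proliferation read by CCK-8 (2 h, A450) after 48 h compound treatment of cells plated at 2×10^4 cells/mL and allowed 24 h attachment, triplicate per concentration. Inhibition rate derived from absorbance relative to untreated blank, with IC50 fitted; pirfenidone as positive control.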

[2] = tested on: human embryonic lung fibroblast IMR-90; assay: Anti-fibrosis activity test: inhibition of proliferation of human embryonic lung fibroblast IMR-90 (CCK-8); settings: human embryonic lung fibroblast IMR-90, CCK-8, 48 hours
Method in brief: as §1

[3] = tested on: human hepatic stellate cells LX-2; assay: Anti-fibrosis activity test: inhibition of proliferation of human hepatic stellate cells LX-2 (CCK-8); settings: Homo sapiens, 48 h, human hepatic stellate cells LX-2, CCK-8, 48 hours
Method in brief: as §1

[4] = tested on: human lung fibroblasts HFL1; assay: Anti-fibrosis activity test: inhibition of proliferation of human lung fibroblasts HFL1 (CCK-8); settings: Homo sapiens, HFL1, 48 h, human lung fibroblasts HFL1, CCK-8, 48 hours
Method in brief: as §1

[5] = tested on: human fibrosarcoma cells HT-1080; assay: Anti-fibrosis activity test: inhibition of proliferation of human fibrosarcoma cells HT-1080 (CCK-8); settings: Homo sapiens, HT-1080, 48 h, human fibrosarcoma cells HT-1080, CCK-8, 48 hours
Method in brief: as §1

BHK-21 cells = assay: Anti-fibrosis activity test: inhibition of BHK-21 cell proliferation (CCK-8); settings: Mesocricetus auratus, BHK-21, 48 h, CCK-8, 48 hours after administration
Method in brief: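 Cells plated 2×10^4 cells/mL; 24 h attach; compound dilutions, triplicate, 48 h, 37° C/5% CO2; CCK-8 2 h; A450; IR = (1−Ai/Ao)×100%; IC50 by curve fit.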

NF-κB = assay: Immunological activity test: inhibition of NF-κB activity; settings: initial concentration of 30 μM; a/b isomers given as first/second symbol; read-out: IC50 (μM), inhibitory activity against NF-κB
Text: Main references for immunological activity test of the compounds of the present application includes: Vogl, S.; Atanasov, A. G.; Binder, M.; Bulusu, M.; Zehl, M.; Fakhrudin, N.; Heiss, E. H.; Picker, P.; Wawrosch, C.; Saukel, J.; Reznicek, G.; Urban, E.; Bochkov, V.; Dirsch, V. M.; Kopp, B. J. Evid-Based Complementary Alern. Med. 2013, ID 395316. Commercially available parthenolide was utilized as a positive control.
The ability of the compounds of the present application to inhibit NF-κB activity was tested at an initial concentration of 30 μM.
The assay data for the compounds of the present application were further analyzed to determine their IC50 values.

[6] = tested on: human dermal fibroblasts CCC-ESF-1; assay: Anti-fibrosis activity test: inhibition of proliferation of human dermal fibroblasts CCC-ESF-1 (CCK-8); settings: Fibroblast; human dermal fibroblasts CCC-ESF-1, CCK-8, 48 hours
Method in brief: as §1

SMILES | IC50 [1] | IC50 [2] | IC50 [3] | IC50 [4] | IC50 [5] | IC50 (BHK-21 cells) | IC50 (NF-κB) | IC50 [6]
N#Cc1ccc2c(=O)c3c(n(Cc4cccc(F)c4)c2c1)-c1cccn1C3=O [Compound 515a, 4-(3-Fluorobenzyl)-9,10-dioxo-4,10-dihydro-9H-pyrrolizino[1,2-b]quinoline-6-carbonitrile] | 0.05 to 5 mM | 0.05 to 5 mM | 0.05 to 5 mM | 0.05 to 5 mM | 5 to 20 mM | 0.05 to 5 mM | 1 to 10 µM | 0.05 to 5 mM
N#Cc1ccc2c(OCc3ccccc3F)c3c(nc2c1)-c1cccn1C3=O [Compound 516b, 9-((2-fluorobenzyl)oxy)-10-oxo-10H-pyrrolizino[1,2-b]quinoline-6-carbonitrile] | 0.05 to 5 mM | 0.05 to 5 mM | 0.05 to 5 mM | 0.05 to 5 mM | 0.05 to 5 mM | 0.05 to 5 mM | 0.1 to 1 µM | 0.05 to 5 mM
N#Cc1ccc2c(OCc3ccc(F)cc3)c3c(nc2c1)-c1cccn1C3=O [Compound 514b, 9-((4-fluorobenzyl)oxy)-10-oxo-10H-pyrrolizino[1,2-b]quinoline-6-carbonitrile] | 0.05 to 5 mM | 0.05 to 5 mM | 0.05 to 5 mM | 0.05 to 5 mM | 0.05 to 5 mM | 0.05 to 5 mM | 1 to 10 µM | 0.05 to 5 mM
CC(C)CCOc1c2c(nc3ccccc13)-c1cccn1C2=O [Compound 8b, 9-(isopentyloxy)-10H-pyrrolizino[1,2-b]quinolin-10-one] | 0.05 to 5 mM | 0.05 to 5 mM | 0.05 to 5 mM | 0.05 to 5 mM | 0.05 to 5 mM | 0.05 to 5 mM | 10 to 50 µM | 0.05 to 5 mM
N#Cc1ccc2nc3c(c(OCc4ccc(Cl)cc4)c2c1)C(=O)n1cccc1-3 [Compound 625b, 9-((4-chlorobenzyl)oxy)-10-oxo-10H-pyrrolizino[1,2-b]quinoline-7-carbonitrile] | 0.05 to 5 mM | 0.05 to 5 mM | 0.05 to 5 mM | 0.05 to 5 mM | 0.05 to 5 mM | 0.05 to 5 mM | 1 to 10 µM | 0.05 to 5 mM
CC(C)=CCn1c2c(c(=O)c3ccccc31)C(=O)n1cccc1-2 [Compound 9a, 4-(3-Methylbut-2-en-1-yl)-9H-pyrrolizino[1,2-b]quinoline-9,10(4H)-dione] | 0.05 to 5 mM | 0.05 to 5 mM | 0.05 to 5 mM | 0.05 to 5 mM | 0.05 to 5 mM | 20 to 100 mM | 1 to 10 µM | 5 to 20 mM
N#Cc1ccc2c(=O)c3c(n(Cc4ccccc4F)c2c1)-c1cccn1C3=O [Compound 516a, 4-(2-Fluorobenzyl)-9,10-dioxo-4,10-dihydro-9H-pyrrolizino[1,2-b]quinoline-6-carbonitrile] | 0.05 to 5 mM | 0.05 to 5 mM | 0.05 to 5 mM | 0.05 to 5 mM | 0.05 to 5 mM | < 0.05 mM | 0.1 to 1 µM | 0.05 to 5 mM
O=C1c2c(nc3ccc(F)cc3c2OCc2ccc(Cl)cc2F)-c2cccn21 [Compound 621b, 9-((4-chloro-2-fluorobenzyl)oxy)-7-fluoro-10H-pyrrolizino[1,2-b]quinolin-10-one] | 0.05 to 5 mM | 0.05 to 5 mM | 0.05 to 5 mM | 0.05 to 5 mM | 0.05 to 5 mM | 0.05 to 5 mM | 1 to 10 µM | 0.05 to 5 mM
O=C1c2c(n(Cc3cccc(Cl)c3)c3cc(C(F)(F)F)ccc3c2=O)-c2cccn21 [Compound 545a, 4-(3-Chlorobenzyl)-6-(trifluoromethyl)-9H-pyrrolizino[1,2-b]quinoline-9,10(4H)-dione] | 0.05 to 5 mM | 0.05 to 5 mM | 0.05 to 5 mM | 0.05 to 5 mM | 5 to 20 mM | 0.05 to 5 mM | 1 to 10 µM | 0.05 to 5 mM
CC(C)Oc1c2c(nc3ccccc13)-c1cccn1C2=O [Compound 5b, 9-isopropoxy-10H-pyrrolizino[1,2-b]quinolin-10-one] | 0.05 to 5 mM | 0.05 to 5 mM | 5 to 20 mM | 0.05 to 5 mM | 5 to 20 mM | 0.05 to 5 mM | 10 to 50 µM | 0.05 to 5 mM
